Experimental data reported in US9868935B2, “Composition and method of stem cells for preservation of cardiac tissue” (CRIOESTAMINAL, SAÚDE E TECNOLOGIA, SA., priority 2012, dated 2018).

Tests used:
CD34+ cells [1] = experiment: Antagonist pretreatment and LPA-induced CD34+ cell survival in hypoxia (Annexin V/PI FACS); type: cell-based, human; conditions: LPA 100 μM alone (+LPA, no antagonist); hypoxia 24 h
Experimental: FIG. 5—LPA induces CD34+ cell survival mainly through peroxisome proliferator-activator receptor (PPAR). Cells were cultured in serum free medium with LPA. Cells were pretreated with Rho kinase inhibitor (Y-2762, 50 μM), mitogen-activated protein kinase (MAPK) inhibitor (PD98059, 60 μM), LPA1- and LPA3-specific inhibitor (Ki16425, 10 μM), or peroxisome proliferator-activator receptor g (PPARg) inhibitor (GW9662, 50 μM) for 1 hour before hypoxia and cell medium containing LPA (100 μM) for 24 h. Cells without any pretreatment and cultured in serum free medium with or without LPA, in hypoxia for 24 h, were used as positive and negative controls, respectively. Results are average±SEM (n=3-6). * Denote statistical significance: *P<0.05, **P<0.01, […].
The biological roles of LPA are diverse and include developmental, physiological, and pathophysiological effects (Lin, M. E., D. R. Herr, and J. Chun, Lysophosphatidic acid (LPA) receptors: signaling properties and disease relevance. Prostaglandins Other Lipid Mediat, 2010. 91(3-4): p. 130-8). To date up to five LPA receptors (LPARs) have been identified: LPA1-LPA5 (Choi, J. W., et al., LPA receptors: subtypes and biological actions. Annu Rev Pharmacol Toxicol, 2010. 50: p. 157-86). The receptors are G protein-coupled receptors (GPCRs) and their presence can be found in multiple tissues. LPA1, LPA2 and LPA3 are widely expressed in most tissues (Ishii, I., et al., Functional comparisons of the lysophosphatidic acid receptors, LP(A1)/VZG-1/EDG-2, LP(A2)/EDG-4, and LP(A3)/EDG-7 in neuronal cell lines using a retrovirus expression system. Mol Pharmacol, 2000. 58(5): p. 895-902). LP4 is expressed in specific organs, such as the pancreas, ovaries and thymus (Lee, C. W., et al., LPA(4)/GPR23 is a lysophosphatidic acid (LPA) receptor utilizing G(s)-, G(q)/G(i)-mediated calcium signaling and G(12/13)-mediated Rho activation. J Biol Chem, 2007. 282(7): p. 4310-7). LPA5 is expressed at low levels in multiple tissues (Lee, C. W., et al., GPR92 as a new G12/13- and Gq-coupled lysophosphatidic acid receptor that increases cAMP, LPA5. J Biol Chem, 2006. 281(33): p. 23589-97). To identify the receptor that is mediating the pro-survival effect of LPA (100 μM), was used Ki16425 (10 μM), an LPA1- and LPA3-specific antagonist, and GW9662 (50 μM), an antagonist of peroxisome proliferator-activator receptor γ (PPAR γ). Studies indicate that LPA has a high affinity by this last receptor (McIntyre, T. M., et al., Identification of an intracellular receptor for lysophosphatidic acid (LPA): LPA is a transcellular PPARgamma agonist. Proc Natl Acad Sci USA, 2003. 100(1): p. 131-6; Gustin, C., M. Van Steenbrugge, and M. Raes, LPA modulates monocyte migration directly and via LPA-stimulated endothelial cells. Am J Physiol Cell Physiol, 2008. 295(4): p. C905-14). This approach was complemented, by inhibiting downstream targets of the receptors including Rho kinase and mitogen-activated protein kinase (MAPK) using Y-2762 (50 μM) and PD98059 (60 μM) antagonists, respectively. It is known that all LPARs couple with and activate G proteins, which in turn activate MAPK (LPA1, LPA2, LPA3 and LPA4) and Rho kinase (LPA1, LPA2, LPA4 and LPA5) (Choi, J. W., et al., LPA receptors: subtypes and biological actions. Annu Rev Pharmacol Toxicol, 2010. 50: p. 157-86). Cells were treated for 1 h in X-Vivo medium containing a specific antagonist followed by culture under hypoxia conditions for 24 h. Cell survival was assessed by FACS analysis after Annexin V/PI staining. […] The number of viable cells decreased from 77% (+LPA) to 67% (P<0.01, n=19). […] Because the two signaling pathways are downstream targets of different LPARs (see above), this might indicate different contributions of LPARs in the survival of CD34+ cells.

CD34+ cells [2] = experiment: CD34+ cell proliferation after hypoxia 24 h then normoxia 6 days; type: cell-based, human; conditions: LPA 100 μM; 24 h hypoxia + 6 days normoxia (7 days period)
From the text: LPA is highly mitogenic for quiescent cells. The mitogenic action of LPA involves the activation of a pertussis toxin-insensitive G protein with subsequent Ca^2+ mobilization and stimulation of protein kinase C, release of arachidonic acid in a GTP-dependent manner, and activation of a pertussis toxinsensitive Gi protein mediating inhibition of adenylate cyclase (van Corven, E. J., et al., Lysophosphatidate-induced cell proliferation: identification and dissection of signaling pathways mediated by G proteins. Cell, 1989. 59(1): p. 45-54). To determine whether LPA can induce the proliferation of CD34+ cells, a suspension of untreated or LPA-treated cells (2×10^^5 cells in 200 μL of X-vivo medium) was exposed to hypoxia for 24 h and then cultured under normoxia conditions for 6 additional days. LPA-treated cells increased their number approximately 3-fold over the 7 days period while untreated cells decreased to half of their initial number (FIG. 3A).

Q: With lysophosphatidic acid [LPA] as the substance, how does the “number of viable cells” value (CD34+ cells [1]) read?
A: ~77%

Q: What about the “increase in cell number” value (CD34+ cells [2]) of the same substance?
A: approximately 3 fold
